Assay results: patent EP2435433B1, “(DIHYDRO)IMIDAZOISO[5,1-A]QUINOLINES AS FSH RECEPTOR AGONISTS FOR THE TREATMENT OF FERTILITY DISORDERS” (Merck Sharp & Dohme B.V., priority 2009, dated 2010)

biological target: T1, human FSH receptor (Homo sapiens, UniProt P23945); test: Agonistic activity of compounds at the human FSH receptor expressed in CHO cells, CRE/luciferase reporter (hFSHRago (CHO luc)); format: cell-based; conditions: CHO cells stably transfected with the human FSH receptor and CRE/firefly luciferase reporter; 4 hours of incubation; half-maximal stimulation relative to the compound's own maximal effect; read-out: hFSHRago (CHO luc) EC50
T1 construct: expressed in transfected cells; host or cells: Chinese Hamster Ovary (CHO) cells, stably transfected, cotransfected with CRE/promotor-firefly luciferase reporter
T1 sequence (P23945 18-695): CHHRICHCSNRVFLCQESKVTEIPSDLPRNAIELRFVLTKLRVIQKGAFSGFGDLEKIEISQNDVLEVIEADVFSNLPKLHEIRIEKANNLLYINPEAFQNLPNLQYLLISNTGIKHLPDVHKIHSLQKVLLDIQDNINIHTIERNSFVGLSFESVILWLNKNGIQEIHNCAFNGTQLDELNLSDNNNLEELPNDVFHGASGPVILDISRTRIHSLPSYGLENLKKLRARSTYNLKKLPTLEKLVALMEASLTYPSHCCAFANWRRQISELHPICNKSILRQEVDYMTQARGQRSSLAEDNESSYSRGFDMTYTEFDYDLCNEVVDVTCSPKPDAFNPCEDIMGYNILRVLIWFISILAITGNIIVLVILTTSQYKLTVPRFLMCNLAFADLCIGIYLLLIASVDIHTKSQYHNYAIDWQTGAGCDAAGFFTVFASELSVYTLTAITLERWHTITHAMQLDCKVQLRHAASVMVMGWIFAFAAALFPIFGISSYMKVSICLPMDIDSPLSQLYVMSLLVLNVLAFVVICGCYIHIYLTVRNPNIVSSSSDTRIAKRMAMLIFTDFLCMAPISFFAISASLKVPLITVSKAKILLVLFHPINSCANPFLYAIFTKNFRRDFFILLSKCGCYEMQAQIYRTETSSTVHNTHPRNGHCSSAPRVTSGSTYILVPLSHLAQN
Description: The term EC50 means the concentration of the test compound that elicits half-maximal (50 %) stimulation compared to the compound's maximally attainable effect. The values can be determined e.g. in a cell line transfected with a FSH receptor gene and cotransfected with a cAMP responsive element/promoter directing the expression of a reporter gene. Values can be determined using a software program such as MathIQ (version 2.0, ID Business Solutions Limited).
Agonistic activity of the compounds at the human FSH receptor was determined in Chinese Hamster Ovary (CHO) cells stably transfected with the human FSH receptor and cotransfected with a cAMP responsive element (CRE)/promotor directing the expression of a firefly luciferase reporter gene. Binding of the compounds to the Gs protein-coupled FSH receptor will result in an increase of cAMP, which in turn will induce an increased transactivation of the luciferase reporter. Cells (7,500 cells/well of a 384 well plate) were incubated in Dulbecco' minimal essential F12 modified medium (Invitrogen), supplemented with 1 µg/ml bovine insulin, 5 µg/ml human apo-transferrin, 80 U/ml penicillin G and 80 µg/ml streptomycin with the test compounds (concentration between 0.0316 nM and 10.0 µM) in duplicate in a humidified atmosphere (95%) at 5-7% CO2 and 37°C. The final concentration of DMSO was 1%. After 4 hours of incubation, plates were allowed to adjust to room temperature for 1 hour. Then, Luclite (PerkinElmer) solution was added to the wells and cells were allowed to lyse for at least 1 hour at room temperature. Subsequently, luciferase activity was measured in a luminescence counter. The signal is expressed as counts per second (cps). The EC50 (concentration of the test compound that elicits half-maximal (50 %) luciferase stimulation compared to the compound's maximally attainable effect) and efficacy values (maximal effect of the test compound as percentage of the maximal effect of recombinant human FSH) of the compounds were determined using the software program MathIQ (version 2.0, ID Business Solutions Limited). EC50 data are indicated at the synthesis examples.

Q: With `COc1cc2c(cc1C(=O)NC(C)C)-c1c(-c3cccs3)nc(C(=O)N(C)C(C)(C)C)n1CC2` [Example 5, 8-Methoxy-1-thiophen-2-yl-5,6-dihydro-imidazo[5,1-a]isoquinoline-3,9-dicarboxylic acid 3-(tert-butyl-methyl-amide) 9-isopropylamide] as the molecule, how does the EC50 read?
A: The EC50 was 18 nM.

Q: Which EC50 does the source give for `COc1cc2c(cc1N)-c1c(-c3cccs3)nc(C(=O)N(C)C(C)(C)C)n1CC2` [Example 6b, 9-Amino-8-methoxy-1-thiophen-2-yl-5,6-dihydro-imidazo[5,1-a]isoquinoline-3-carboxylic acid tert-butyl-methyl-amide] here?
A: The EC50 was 740 nM.

Q: For `COc1cc2c(cc1NC(=O)C(C)O)-c1c(-c3cccs3)nc(C(=O)N(C)C(C)(C)C)n1CC2` (centres unmarked) [Example 7, 9-(2-Hydroxy-propionylamino)-8-methoxy-1-thiophen-2-yl-5,6-dihydro-imidazo[5,1-a]isoquinoline-3-carboxylic acid tert-butyl-methyl-amide], which EC50 is on record?
A: The EC50 was 35 nM.

Q: How did the EC50 turn out when `COc1cc2c(cc1NC(=O)[C@H](C)N)-c1c(-c3cccs3)nc(C(=O)N(C)C(C)(C)C)n1CC2` [Example 8, 9-((S)-2-Amino-propionylamino)-8-methoxy-1-thiophen-2-yl-5,6-dihydro-imidazo[5,1-a]isoquinoline-3-carboxylic acid tert-butyl-methyl-amide] was run?
A: The EC50 was 49 nM.

Q: Which EC50 does the source give for `COc1cc2c(cc1NC(=O)c1cccnc1)-c1c(-c3cccs3)nc(C(=O)N(C)C(C)(C)C)n1CC2` [Example 9, 8-Methoxy-9-[(pyridine-3-carbonyl)-amino]-1-thiophen-2-yl-5,6-dihydro-imidazo[5,1-a]isoquinoline-3-carboxylic acid tert-buyl-methyl-amide] here?
A: Its EC50 is 224 nM.

Q: How did the EC50 turn out when `COc1cc2c(cc1NC(=O)c1nccs1)-c1c(-c3cccs3)nc(C(=O)N(C)C(C)(C)C)n1CC2` [Example 10, 8-Methoxy-9-[(thiazole-2-carbonyl)-amino]-1-thiophen-2-yl-5,6-dihydro-imidazo[5,1-a]isoquinoline-3-carboxylic acid tert-butyl-methyl-amide] was run?
A: Its EC50 is 12 nM.

Q: With `COc1cc2c(cc1NC(=O)c1cscn1)-c1c(-c3cccs3)nc(C(=O)N(C)C(C)(C)C)n1CC2` [Example 11, 8-Methoxy-9-[(thiazole-4-carbonyl)-amino]-1-thiophen-2-yl-5,6-dihydro-imidazo[5,1-a]isoquinoline-3-carboxylic acid tert-butyl-methyl-amide] as the molecule, how does the EC50 read?
A: The EC50 was 13 nM.

Q: With `COc1cc2c(cc1NC(=O)c1csnn1)-c1c(-c3cccs3)nc(C(=O)N(C)C(C)(C)C)n1CC2` [Example 12, 8-Methoxy-9-[([1,2,3]thiadiazole-4-carbonyl)-amino]-1-thiophen-2-yl-5,6-dihydro-imidazo[5,1-a]isoquinoline-3-carboxylic acid tert-butyl-methyl-amide] as the molecule, how does the EC50 read?
A: The EC50 was 15 nM.

Q: How did the EC50 turn out when `CCN(C)CC(=O)Nc1cc2c(cc1OC)CCn1c(C(=O)N(C)C(C)(C)C)nc(-c3cccs3)c1-2` [Example 13b, 9-[2-(Ethyl-methyl-amino)-acetylamino]-8-methoxy-1-thiophen-2-yl-5,6-dihydro-imidazo[5,1-a]isoquinoline-3-carboxylic acid tert-butyl-methyl-amide] was run?
A: Its EC50 is 26 nM.

Q: How did the EC50 turn out when `COc1cc2c(cc1NC(=O)CN1CCOCC1)-c1c(-c3cccs3)nc(C(=O)N(C)C(C)(C)C)n1CC2` [Example 14, 8-Methoxy-9-(2-morpholin-4-yl-acetylamino)-1-thiophen-2-yl-5,6-dihydro-imidazo[5,1-a]isoquinoline-3-carboxylic acid tert-butyl-methyl-amide] was run?
A: Its EC50 is 10 nM.

Q: `COc1cc2ccn3c(C(=O)N(C)C(C)(C)C)nc(-c4cccs4)c3c2cc1C=C(C)C` [Example 16e, 8-Methoxy-9-(2-methyl-propenyl)-1-thiophen-2-yl-imidazo[5,1-a]isoquinoline-3-carboxylic acid tert-butyl-methyl-amide] was tested. Which EC50 did it give?
A: Its EC50 is 9 nM.

Q: With `COc1cc2ccn3c(C(=O)N(C)C(C)(C)C)nc(-c4cccs4)c3c2cc1-c1cnn(C)c1` [Example 17b, 8-Methoxy-9-(1-methyl-1H-pyrazol-4-yl)-1-thiophen-2-yl-imidazo[5,1-a]isoquinoline-3-carboxylic acid tert-butyl-methyl-amide] as the molecule, how does the EC50 read?
A: Its EC50 is 23 nM.

Q: Which EC50 does the source give for `COc1cc2c(cc1CC(C)C)-c1c(-c3cccs3)nc(C(=O)N(C)C(C)(C)C)n1CC2` [Example 18k, 9-Isobutyl-8-methoxy-1-thiophen-2-yl-5,6-dihydro-imidazo[5,1-a]isoquinoline-3-carboxylic acid tert-butyl-methyl-amide] here?
A: The EC50 was 8 nM.

Q: Which EC50 does the source give for `C=Cc1cc2c(cc1CC(C)C)-c1c(-c3cccs3)nc(C(=O)N(C)C(C)(C)C)n1CC2` [Example 19d, 9-Isobutyl-1-thiophen-2-yl-8-vinyl-5,6-dihydro-imidazo[5,1-a]isoquinoline-3-carboxylic acid tert-butyl-methyl-amide] here?
A: Its EC50 is 76 nM.

Q: For `CCc1cc2c(cc1CC(C)C)-c1c(-c3cccs3)nc(C(=O)N(C)C(C)(C)C)n1CC2` [Example 19e, 8-Ethyl-9-isobutyl-1-thiophen-2-yl-5,6-dihydro-imidazo[5,1-a]isoquinoline-3-carboxylic acid tert-butyl-methyl-amide], which EC50 is on record?
A: Its EC50 is 200 nM.

Q: `CC(C)Cc1ccc2c(c1)-c1c(-c3cccs3)nc(C(=O)N(C)C(C)(C)C)n1CC2` [Example 20b, 9-Isobutyl-1-thiophen-2-yl-5,6-dihydro-imidazo[5,1-a]isoquinoline-3-carboxylic acid tert-butyl-methyl-amide] was tested. Which EC50 did it give?
A: Its EC50 is 407 nM.

Q: Which EC50 does the source give for `CCN(C(=O)c1nc(-c2cccs2)c2n1CCc1cc(OC)c(OC(C)C)cc1-2)C(C)(C)C` [Example 21f, 9-Isopropoxy-8-methoxy-1-thiophen-2-yl-5,6-dihydro-imidazo[5,1-a]isoquinoline-3-carboxylic acid tert-butyl-ethyl-amide] here?
A: The EC50 was 0.9 nM.

Q: Which EC50 does the source give for `COc1cc2c(cc1OC(C)C)-c1c(-c3cccs3)nc(C(=O)N3CCCC3(C)C)n1CC2` [Example 22, (2,2-Dimethyl-pyrrolidin-1-yl)-(9-isopropoxy-8-methoxy-1-thiophen-2-yl-5,6-dihydro-imidazo[5,1-a]isoquinolin-3-yl)-methanone] here?
A: Its EC50 is 3 nM.

Q: `CCC1CCCN1C(=O)c1nc(-c2cccs2)c2n1CCc1cc(OC)c(OC(C)C)cc1-2` (centres unmarked) [Example 23, (2-Ethyl-pyrrolidin-1-yl)-(9-isopropoxy-8-methoxy-1-thiophen-2-yl-5,6-dihydro-imidazo[5,1-a]isoquinolin-3-yl)-methanone] was tested. Which EC50 did it give?
A: The EC50 was 63 nM.

Q: How did the EC50 turn out when `COc1cc2c(cc1OC)-c1c(-c3cccs3)nc(C(=O)N3CCCC3C)n1CC2` (centres unmarked) [Example 24c, (2-Methyl-pyrrolidin-1-yl)-(9-methoxy-8-methoxy-1-thiophen-2-yl-5,6-dihydro-imidazo[5,1-a]isoquinolin-3-yl)-methanone] was run?
A: The EC50 was 333 nM.

Q: Which EC50 does the source give for `COc1cc2c(cc1OC)-c1c(-c3cccs3)nc(C(=O)N(CCO)C(C)C)n1CC2` [Example 25, 8,9-Dimethoxy-1-thiophen-2-yl-5,6-dihydro-imidazo[5,1-a]isoquinoline-3-carboxylic acid (2-hydroxy-ethyl)-isopropyl-amide] here?
A: Its EC50 is 138 nM.

Q: `COc1cc2c(cc1OC)-c1c(-c3cccs3)nc(C(=O)N3CCCOCC3)n1CC2` [Example 26, (8,9-Dimethoxy-1-thiophen-2-yl-5,6-dihydro-imidazo[5,1-a]isoquinolin-3-yl)-[1,4]oxazepan-4-yl-methanone] was tested. Which EC50 did it give?
A: Its EC50 is 314 nM.

Q: `COc1cc2c(cc1OC(C)C)-c1c(-c3cccs3)nc(C(=O)N3CC4CC(CN(C(C)=O)C4)C3)n1CC2` [Example 29c, 1-[7-(9-Isopropoxy-8-methoxy-1-thiophen-2-yl-5,6-dihydro-imidazo[5,1-a]isoquinoline-3-carbonyl)-3,7-diaza-bicyclo[3.3.1]non-3-yl]-ethanone] was tested. Which EC50 did it give?
A: The EC50 was 21 nM.
